Measurements from patent US20040068002A1, “4-aminobenzopyran derivatives” (priority 2001, published 2004).

Assays:
[1] = tested on: atrial effective refractory period; experiment: Effects on the effective refractory period (atrial), anesthetized beagles with vagal nerve stimulation; type: in vivo; conditions: 0.3 mg/kg intravenously, from 5 min after administration, after minus before administration
Method: (§1) Effects on the Effective Refractory Period
(§2) Beagles were anesthetized with pentobarbital sodium and, under artificially ventilated condition, thoracotomy was conducted along the median and the pericardium was cut open to expose the heart. ECG was recorded using bipolar electrodes attached to the surface of the right atrial free wall, right atrial auricle, and right ventricular free wall. The vagal nerves were stimulated using an electric stimulation device via Nichrome wires inserted into the bilateral vagal nerves in the neck. The conditions for electric stimulation to the vagal nerves were set such that the RR intervals on ECG were prolonged by about 100 msec compared with those before the stimulation was started.
(§3) Electric current twice as strong as the threshold was used for the electric stimulation to the heart, and premature stimulation S2 was applied after giving 10 serial S1 stimulations at the basic stimulation cyclelength. […]
(§4) For evaluation of drug effects, the atrial and ventricular effective refractory periods were determined before drug administration, then each compound was administrated intravenously at the dose of 0.3 mg/kg, and the atrial and ventricular effective refractory periods were determined from 5 min after the administration. […]

[2] = tested on: ventricular effective refractory period; experiment: Effects on the effective refractory period (ventricular), anesthetized beagles with vagal nerve stimulation; type: in vivo; conditions: 0.3 mg/kg intravenously, from 5 min after administration, after minus before administration
Method: as §1, §2, §3, §4

SMILES: CCCCCN[C@H]1c2cc(NC(C)=O)c([N+](=O)[O-])cc2OC(C)(C)[C@@H]1O (relative stereo) [Synthesis Example 1, (3R*,4S*)-6-acetylamino-3,4-dihydro-2,2-dimethyl-7-nitro-4-n-pentylamino-2H-1-benzopyran-3-ol]
- prolongation time in effective refractory period (msec) Atrium [1]: 40 ms
- prolongation time in effective refractory period (msec) ventricle [2]: 5 ms

SMILES: CCCCCN[C@H]1c2cc(N)c([N+](=O)[O-])cc2OC(C)(C)[C@@H]1O (relative stereo) [Synthesis Example 9, Trans-6-amino-3,4-dihydro-2,2-dimethyl-7-nitro-4-n-pentylamino-2H-1-benzopyran-3-ol]
- prolongation time in effective refractory period (msec) Atrium [1]: 27 ms
- prolongation time in effective refractory period (msec) ventricle [2]: 3 ms
